Laboratory results as given in PMC8317212 (Journal of medicinal chemistry, 2016).
Where a name gives a salt, the structure may show the parent alone. Read-outs that look alike come from different tables or passages of the source.

Tests used:
Type in all cases: cell-based
human 5-HT2B = human 5-HT2B (Homo sapiens, UniProt P41595); assay: FLIPR calcium flux assay, 5-HT2B; details: for Emax 5-HT2B: HEK-293 cells stably expressing human receptor
human 5-HT2C-INI = biological target: T1, human 5-HT2C-INI (Homo sapiens, UniProt P28335); assay: FLIPR calcium flux assay, 5-HT2C; details: for EC50: read-out: EC50, nM 5-HT2C, FLIPR, HEK-293 cells stably expressing human receptor
T1 sequence (P28335 33-458): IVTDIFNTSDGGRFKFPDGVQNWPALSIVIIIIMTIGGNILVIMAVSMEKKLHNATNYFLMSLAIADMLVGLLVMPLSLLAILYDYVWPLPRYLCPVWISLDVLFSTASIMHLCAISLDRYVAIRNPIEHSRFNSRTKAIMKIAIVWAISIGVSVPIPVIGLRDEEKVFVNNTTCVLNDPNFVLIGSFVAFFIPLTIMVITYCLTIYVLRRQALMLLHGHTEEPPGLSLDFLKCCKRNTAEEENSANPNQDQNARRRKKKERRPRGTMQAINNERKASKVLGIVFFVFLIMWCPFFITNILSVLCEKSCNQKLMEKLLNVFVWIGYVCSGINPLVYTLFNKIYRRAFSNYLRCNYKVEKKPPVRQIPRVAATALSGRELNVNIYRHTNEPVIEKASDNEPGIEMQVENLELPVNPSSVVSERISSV

human 5-HT2A = human 5-HT2A (Homo sapiens, UniProt P28223); assay: FLIPR calcium flux assay, 5-HT2A
human 5-HT2A, sequence (P28223 whole entry): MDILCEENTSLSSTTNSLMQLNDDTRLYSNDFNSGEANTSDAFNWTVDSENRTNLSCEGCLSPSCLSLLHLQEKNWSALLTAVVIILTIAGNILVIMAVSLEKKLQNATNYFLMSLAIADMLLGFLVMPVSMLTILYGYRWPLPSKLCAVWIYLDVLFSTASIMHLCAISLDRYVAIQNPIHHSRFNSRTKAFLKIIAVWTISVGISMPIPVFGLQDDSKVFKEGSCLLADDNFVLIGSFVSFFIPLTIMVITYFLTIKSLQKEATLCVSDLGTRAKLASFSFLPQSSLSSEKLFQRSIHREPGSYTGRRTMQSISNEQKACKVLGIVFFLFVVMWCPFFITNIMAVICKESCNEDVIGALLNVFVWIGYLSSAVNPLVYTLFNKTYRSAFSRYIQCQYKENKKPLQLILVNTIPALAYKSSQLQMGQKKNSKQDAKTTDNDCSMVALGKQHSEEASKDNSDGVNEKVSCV

[1] = EC50, nM 5-HT2B, FLIPR, HEK-293 cells, NA = no activity (Emax < 15%) at 10 μM

human 5-HT2B, sequence (P41595 whole entry): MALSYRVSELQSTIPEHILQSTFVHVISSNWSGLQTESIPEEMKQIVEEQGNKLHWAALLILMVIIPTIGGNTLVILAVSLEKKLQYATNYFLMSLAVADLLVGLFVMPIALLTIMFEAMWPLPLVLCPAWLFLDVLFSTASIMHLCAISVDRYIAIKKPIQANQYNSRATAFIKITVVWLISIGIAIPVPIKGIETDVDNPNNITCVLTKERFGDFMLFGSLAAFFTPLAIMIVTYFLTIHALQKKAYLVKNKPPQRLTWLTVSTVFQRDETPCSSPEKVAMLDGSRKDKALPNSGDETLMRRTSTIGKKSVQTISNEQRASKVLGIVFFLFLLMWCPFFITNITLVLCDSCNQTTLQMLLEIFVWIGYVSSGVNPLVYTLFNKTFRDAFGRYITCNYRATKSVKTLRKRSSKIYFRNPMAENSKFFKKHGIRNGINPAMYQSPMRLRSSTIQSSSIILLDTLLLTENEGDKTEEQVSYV

Row | SMILES | EC50 (human 5-HT2C-INI) [nM] | EC50, nM 5-HT2A (human 5-HT2A) | also measured
1 | COc1ccc(Cl)c(Cl)c1C1CC1CN.Cl (single isomer, unassigned; (+)) [(+)-20f, (+)-[2-(2,3-Dichloro-6-methoxyphenyl)cyclopropyl]methanamine Hydrochloride] | – | – | Emax 5-HT2B (human 5-HT2B; FLIPR): 46%; fold weaker at 5-HT2C than its enantiomer (human 5-HT2C-INI; compared to the (–)-enantiomer): 20 fold; Emax 5-HT2A (human 5-HT2A; FLIPR, HEK-293 cells stably expressing human receptor): 76%
2 | COc1ccc(F)c(Cl)c1C1CC1CN.Cl (single isomer, unassigned; (+)) [(+)-20g, (+)-[2-(2-Chloro-3-fluoro-6-methoxyphenyl)cyclopropyl]methanamine Hydrochloride] | – | – | Emax 5-HT2B (human 5-HT2B; FLIPR): 60%
3 | NCC1CC1c1cc(F)c(F)cc1OCCF (single isomer, unassigned; (+)) [(+)-21a, (+)-[2-[4,5-Difluoro-2-(2-fluoroethoxy)phenyl]cyclopropyl]methanamine Hydrochloride] | 7.3 | – | –
4 | NCC1CC1c1c(OCCF)ccc(F)c1F (single isomer, unassigned; (+)) [(+)-21b, (+)-[2-[2,3-Difluoro-6-(2-fluoroethoxy)phenyl]cyclopropyl]methanamine Hydrochloride] | 25 | – | –
5 | NCC1CC1c1cc(Cl)c(F)cc1OCCF (single isomer, unassigned; (+)) [(+)-21c, (+)-[2-[5-Chloro-4-fluoro-2-(2-fluoroethoxy)phenyl]cyclopropyl]methanamine Hydrochloride] | 24 | – | EC50 (human 5-HT2B; read-out: EC50, nM 5-HT2B): 506 nM
6 | Cl.NCC1CC1c1c(OCCF)ccc(Cl)c1F (single isomer, unassigned; (+)) [(+)-21d, (+)-[2-[3-Chloro-2-fluoro-6-(2-fluoroethoxy)phenyl]cyclopropyl]methanamine Hydrochloride] | 71 | – | EC50, nM 5-HT2B (human 5-HT2B): NA (no activity (Emax < 15%) at 10 μM)
7 | NCC1CC1c1cc(Cl)c(Cl)cc1OCCF (single isomer, unassigned; (+)) [(+)-21e, (+)-[2-[4,5-Dichloro-2-(2-fluoroethoxy)phenyl]cyclopropyl]methanamine Hydrochloride] | 18 | – | EC50 (human 5-HT2B; [1]): > 10000 nM
8 | Cl.NCC1CC1c1c(OCCF)ccc(Cl)c1Cl (single isomer, unassigned; (+)) [(+)-21f, (+)-[2-[2,3-Dichloro-6-(2-fluoroethoxy)phenyl]cyclopropyl]methanamine Hydrochloride] | – | – | Emax 5-HT2B (human 5-HT2B; FLIPR): 99%
9 | NCC1CC1c1c(OCCF)ccc(F)c1Cl (single isomer, unassigned; (+)) [(+)-21g, (+)-[2-[2-Chloro-3-fluoro-6-(2-fluoroethoxy)phenyl]cyclopropyl]methanamine Hydrochloride] | 49 | – | –
10 | C=CCOc1ccc(F)c(F)c1C1CC1CN.Cl (single isomer, unassigned; (+)) [(+)-22b, (+)-[2-[6-(Allyloxy)-2,3-difluorophenyl]cyclopropyl]methanamine hydrochloride] | 36 | NA (no activity (Emax < 15%) at 10 μM) | EC50 (human 5-HT2B; read-out: EC50, nM 5-HT2B): 3340 nM
11 | C=CCOc1cc(F)c(Cl)cc1C1CC1CN.Cl (single isomer, unassigned; (+)) [(+)-22c, (+)-[2-[2-(Allyloxy)-5-chloro-4-fluorophenyl]cyclopropyl]methanamine Hydrochloride] | 42 | – | Emax 5-HT2B (human 5-HT2B; FLIPR): 44%
12 | C=CCOc1ccc(Cl)c(F)c1C1CC1CN.Cl (single isomer, unassigned; (+)) [(+)-22d, (+)-[2-[6-(Allyloxy)-3-chloro-2-fluorophenyl]cyclopropyl]methanamine Hydrochloride] | 116 | NA (no activity (Emax < 15%) at 10 μM) | –
13 | C=CCOc1cc(Cl)c(Cl)cc1C1CC1CN (single isomer, unassigned; (+)) [(+)-22e, (+)-[2-[2-(Allyloxy)-4,5-dichlorophenyl]cyclopropyl]methanamine Hydrochloride] | 61 | – | –
14 | C=CCOc1ccc(Cl)c(Cl)c1C1CC1CN.Cl (single isomer, unassigned; (+)) [(+)-22f, (+)-[2-[6-(Allyloxy)-2,3-dichlorophenyl]cyclopropyl]methanamine Hydrochloride] | – | NA (no activity (Emax < 15%) at 10 μM) | EC50, nM 5-HT2B (human 5-HT2B): NA (no activity (Emax < 15%) at 10 μM)
15 | C=CCOc1ccc(F)c(Cl)c1C1CC1CN.Cl (single isomer, unassigned; (+)) [(+)-22g, (+)-[2-[6-(Allyloxy)-2-chloro-3-fluorophenyl]cyclopropyl]methanamine Hydrochloride] | – | NA (no activity (Emax < 15%) at 10 μM) | –
16 | COc1ccc(Cl)c(Cl)c1C1CC1CN.Cl (single isomer, unassigned; (-)) [(–)-20f, (–)-[2-(2,3-Dichloro-6-methoxyphenyl)cyclopropyl]methanamine Hydrochloride] | – | – | selectivity over 5-HT2B (human 5-HT2B; 5-HT2C vs 5-HT2B): 50 fold
17 | Cl.NCC1CC1c1cc(F)c(F)cc1OCCF (single isomer, unassigned; (-)) [(–)-21a, (–)-[2-[4,5-Difluoro-2-(2-fluoroethoxy)phenyl]cyclopropyl]methanamine Hydrochloride] | – | NA (no activity (Emax < 15%) at 10 μM) | EC50, nM 5-HT2B (human 5-HT2B): NA (no activity (Emax < 15%) at 10 μM)
18 | Cl.NCC1CC1c1c(OCCF)ccc(F)c1F (single isomer, unassigned; (-)) [(–)-21b, (–)-[2-[2,3-Difluoro-6-(2-fluoroethoxy)phenyl]cyclopropyl]methanamine Hydrochloride] | – | NA (no activity (Emax < 15%) at 10 μM) | –
19 | Cl.NCC1CC1c1cc(Cl)c(F)cc1OCCF (single isomer, unassigned; (-)) [(–)-21c, (–)-[2-[5-Chloro-4-fluoro-2-(2-fluoroethoxy)phenyl]cyclopropyl]methanamine Hydrochloride] | – | NA (no activity (Emax < 15%) at 10 μM) | –
20 | Cl.NCC1CC1c1c(OCCF)ccc(Cl)c1F (single isomer, unassigned; (-)) [(–)-21d, (–)-[2-[3-Chloro-2-fluoro-6-(2-fluoroethoxy)phenyl]cyclopropyl]methanamine Hydrochloride] | – | NA (no activity (Emax < 15%) at 10 μM) | EC50, nM 5-HT2B (human 5-HT2B): NA (no activity (Emax < 15%) at 10 μM)
21 | Cl.NCC1CC1c1cc(Cl)c(Cl)cc1OCCF (single isomer, unassigned; (-)) [(–)-21e, (–)-[2-[4,5-Dichloro-2-(2-fluoroethoxy)phenyl]cyclopropyl]methanamine Hydrochloride] | – | NA (no activity (Emax < 15%) at 10 μM) | EC50, nM 5-HT2B (human 5-HT2B): NA (no activity (Emax < 15%) at 10 μM)
22 | Cl.NCC1CC1c1c(OCCF)ccc(Cl)c1Cl (single isomer, unassigned; (-)) [(–)-21f, (–)-[2-[2,3-Dichloro-6-(2-fluoroethoxy)phenyl]cyclopropyl]methanamine Hydrochloride] | – | NA (no activity (Emax < 15%) at 10 μM) | EC50 (human 5-HT2B; [1]): > 10000 nM; Emax 5-HT2B (human 5-HT2B; FLIPR): 62%
23 | Cl.NCC1CC1c1c(OCCF)ccc(F)c1Cl (single isomer, unassigned; (-)) [(–)-21g, (–)-[2-[2-Chloro-3-fluoro-6-(2-fluoroethoxy)phenyl]cyclopropyl]methanamine Hydrochloride] | – | NA (no activity (Emax < 15%) at 10 μM) | Emax 5-HT2B (human 5-HT2B; FLIPR): 29%
24 | C=CCOc1ccc(F)c(F)c1C1CC1CN.Cl (single isomer, unassigned; (-)) [(–)-22b, (–)-[2-[6-(Allyloxy)-2,3-difluorophenyl]cyclopropyl]methanamine hydrochloride] | – | NA (no activity (Emax < 15%) at 10 μM) | –
25 | C=CCOc1cc(F)c(Cl)cc1C1CC1CN.Cl (single isomer, unassigned; (-)) [(–)-22c, (–)-[2-[2-(Allyloxy)-5-chloro-4-fluorophenyl]cyclopropyl]methanamine Hydrochloride] | – | NA (no activity (Emax < 15%) at 10 μM) | –
26 | C=CCOc1ccc(Cl)c(F)c1C1CC1CN.Cl (single isomer, unassigned; (-)) [(–)-22d, (–)-[2-[6-(Allyloxy)-3-chloro-2-fluorophenyl]cyclopropyl]methanamine Hydrochloride] | – | – | EC50, nM 5-HT2B (human 5-HT2B): NA (no activity (Emax < 15%) at 10 μM)
27 | C=CCOc1cc(Cl)c(Cl)cc1C1CC1CN.Cl (single isomer, unassigned; (-)) [(–)-22e, (–)-[2-[2-(Allyloxy)-4,5-dichlorophenyl]cyclopropyl]methanamine Hydrochloride] | – | NA (no activity (Emax < 15%) at 10 μM) | EC50, nM 5-HT2B (human 5-HT2B): NA (no activity (Emax < 15%) at 10 μM)
28 | C=CCOc1ccc(F)c(Cl)c1C1CC1CN.Cl (single isomer, unassigned; (-)) [(–)-22g, (–)-[2-[6-(Allyloxy)-2-chloro-3-fluorophenyl]cyclopropyl]methanamine Hydrochloride] | – | NA (no activity (Emax < 15%) at 10 μM) | –
